Several values for one entry are separate records, joined by “and”; a condition that tells them apart may be missing. Equal entries are not always repeated.
Test system: 521955-158-R7-J2-PDC spheroids, viability % test/control
Assay: Anticancer human tumor 521955-158-R7-J2-PDC patient-derived pancreatic carcinoma cell line growth inhibition [TAK]
Details: spheroids with HUVEC and MSC; for viability, T/C: stronger effect = lower value
Method in brief: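 Spheroids of 60% malignant cells, 25% HUVEC and 15% hMSC were exposed to targeted agents combined with TAK-243 or ipatasertib. Concentrations started at or near clinical Cmax (10 microM if unknown) and descended in half-log steps.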

[1] = curve of first compound, second compound 0.3 µM
[2] = curve of first compound, second compound 0.949 µM
[3] = curve of first compound, second compound 3 µM
[4] = curve of first compound, second compound 9.49 µM
[5] = curve of first compound, second compound 30 µM
[6] = second compound 0.3 µM, first compound 0.316 µM
[7] = second compound 0.3 µM, first compound 1 µM
[8] = second compound 0.949 µM, first compound 0.316 µM
[9] = second compound 0.949 µM, first compound 1 µM
[10] = second compound 3 µM, first compound 0.316 µM
[11] = second compound 3 µM, first compound 1 µM
[12] = second compound 9.49 µM, first compound 0.316 µM
[13] = second compound 9.49 µM, first compound 1 µM
[14] = second compound 30 µM, first compound 0.316 µM
[15] = second compound 30 µM, first compound 1 µM
[16] = second compound 0.3 µM, first compound 0.00316 µM
[17] = second compound 0.3 µM, first compound 0.01 µM
[18] = second compound 0.3 µM, first compound 0.0316 µM
[19] = second compound 0.3 µM, first compound 0.1 µM
[20] = second compound 0.949 µM, first compound 0.00316 µM
[21] = second compound 0.949 µM, first compound 0.01 µM
[22] = second compound 0.949 µM, first compound 0.0316 µM
[23] = second compound 0.949 µM, first compound 0.1 µM
[24] = second compound 3 µM, first compound 0.00316 µM
[25] = second compound 3 µM, first compound 0.01 µM
[26] = second compound 3 µM, first compound 0.0316 µM
[27] = second compound 3 µM, first compound 0.1 µM
[28] = second compound 9.49 µM, first compound 0.00316 µM
[29] = second compound 9.49 µM, first compound 0.01 µM
[30] = second compound 9.49 µM, first compound 0.0316 µM
[31] = second compound 9.49 µM, first compound 0.1 µM
[32] = second compound 30 µM, first compound 0.00316 µM
[33] = second compound 30 µM, first compound 0.01 µM
[34] = second compound 30 µM, first compound 0.0316 µM
[35] = second compound 30 µM, first compound 0.1 µM
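Note: spheroids exposed to compound for 7 days before readout.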
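Throughout, for viability, T/C: 100% = DMSO vehicle control wells.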

SMILES: CC(C)CC(NC(=O)C(Cc1ccccc1)NC(=O)c1cnccn1)B(O)O (configuration not stated)
- viability, T/C (compound 31.6 pM): 94% and 103%
- viability, T/C (compound 0.0001 µM): 82.3% and 99.8%
- viability, T/C (compound 0.000316 µM): 96.1% and 93.2%
- viability, T/C (compound 0.001 µM): 88.4% and 100%
- viability, T/C (compound 0.00316 µM): 103% and 93%
- viability, T/C (compound 0.01 µM): 4.87% and 2.64%
- IC50 (curve of compound): 5.54 nM and 5.47 nM

SMILES: CCCS(=O)(=O)Nc1ccc(F)c(C(=O)c2c[nH]c3ncc(-c4ccc(Cl)cc4)cc23)c1F + CC(C)NCC(C(=O)N1CCN(c2ncnc3c2C(C)CC3O)CC1)c1ccc(Cl)cc1
- IC50 [1]: > 100000 nM
- IC50 [2]: > 100000 nM
- IC50 [3]: > 100000 nM
- IC50 [4]: 21800 nM
- IC50 [5]: 6430 nM
- viability, T/C [6]: 85.9%
- viability, T/C [7]: 83.5%
- viability, T/C (second compound 0.3 µM, first compound 3.16 µM): 85.8%
- viability, T/C (second compound 0.3 µM, first compound 10 µM): 108%
- viability, T/C (second compound 0.3 µM, first compound 31.6 µM): 69.5%
- viability, T/C (second compound 0.3 µM, first compound 100 µM): 81.8%
- viability, T/C [8]: 84.4%
- viability, T/C [9]: 94.1%
- viability, T/C (second compound 0.949 µM, first compound 3.16 µM): 90.9%
- viability, T/C (second compound 0.949 µM, first compound 10 µM): 107%
- viability, T/C (second compound 0.949 µM, first compound 31.6 µM): 53.6%
- viability, T/C (second compound 0.949 µM, first compound 100 µM): 87%
- viability, T/C [10]: 82.9%
- viability, T/C [11]: 89.1%
- viability, T/C (second compound 3 µM, first compound 3.16 µM): 105%
- viability, T/C (second compound 3 µM, first compound 10 µM): 88.5%
- viability, T/C (second compound 3 µM, first compound 31.6 µM): 54%
- viability, T/C (second compound 3 µM, first compound 100 µM): 50.5%
- viability, T/C [12]: 85.4%
- viability, T/C [13]: 107%
- viability, T/C (second compound 9.49 µM, first compound 3.16 µM): 99.8%
- viability, T/C (second compound 9.49 µM, first compound 10 µM): 73.7%
- viability, T/C (second compound 9.49 µM, first compound 31.6 µM): 39.9%
- viability, T/C (second compound 9.49 µM, first compound 100 µM): 32.4%
- viability, T/C [14]: 107%
- viability, T/C [15]: 119%
- viability, T/C (second compound 30 µM, first compound 3.16 µM): 127%
- viability, T/C (second compound 30 µM, first compound 10 µM): 5.6%
- viability, T/C (second compound 30 µM, first compound 31.6 µM): 5.46%
- viability, T/C (second compound 30 µM, first compound 100 µM): 13.1%

SMILES: CC(C)n1nc(-c2ccc3oc(N)nc3c2)c2c(N)ncnc21 + CC(C)NCC(C(=O)N1CCN(c2ncnc3c2C(C)CC3O)CC1)c1ccc(Cl)cc1
- IC50 [1]: > 100 nM
- IC50 [2]: > 100 nM
- IC50 [3]: > 100 nM
- IC50 [4]: > 100 nM
- IC50 [5]: > 100 nM
- viability, T/C (second compound 0.3 µM, first compound 0.000316 µM): 112%
- viability, T/C (second compound 0.3 µM, first compound 0.001 µM): 74.7%
- viability, T/C [16]: 78.8%
- viability, T/C [17]: 134%
- viability, T/C [18]: 98.1%
- viability, T/C [19]: 69%
- viability, T/C (second compound 0.949 µM, first compound 0.000316 µM): 118%
- viability, T/C (second compound 0.949 µM, first compound 0.001 µM): 84.9%
- viability, T/C [20]: 100%
- viability, T/C [21]: 75.3%
- viability, T/C [22]: 99%
- viability, T/C [23]: 100%
- viability, T/C (second compound 3 µM, first compound 0.000316 µM): 91.3%
- viability, T/C (second compound 3 µM, first compound 0.001 µM): 105%
- viability, T/C [24]: 86.8%
- viability, T/C [25]: 94.3%
- viability, T/C [26]: 132%
- viability, T/C [27]: 120%
- viability, T/C (second compound 9.49 µM, first compound 0.000316 µM): 89.9%
- viability, T/C (second compound 9.49 µM, first compound 0.001 µM): 98.3%
- viability, T/C [28]: 83.9%
- viability, T/C [29]: 113%
- viability, T/C [30]: 120%
- viability, T/C [31]: 106%
- viability, T/C (second compound 30 µM, first compound 0.000316 µM): 102%
- viability, T/C (second compound 30 µM, first compound 0.001 µM): 115%
- viability, T/C [32]: 103%
- viability, T/C [33]: 127%
- viability, T/C [34]: 117%
- viability, T/C [35]: 80%

SMILES: COc1c(OCCCN2CCOCC2)ccc2c3n(c(=NC(=O)c4cnc(N)nc4)nc12)CCN3 + CC(C)NCC(C(=O)N1CCN(c2ncnc3c2C(C)CC3O)CC1)c1ccc(Cl)cc1
- IC50 [1]: 21.9 nM
- IC50 [2]: 22 nM
- IC50 [3]: 7.21 nM
- IC50 [4]: 6.2 nM
- IC50 [5]: 3.38 nM
- viability, T/C [16]: 102%
- viability, T/C [17]: 67.6%
- viability, T/C [18]: 40.9%
- viability, T/C [19]: 27.5%
- viability, T/C [6]: 13.7%
- viability, T/C [7]: 11%
- viability, T/C [20]: 81%
- viability, T/C [21]: 66.5%
- viability, T/C [22]: 43.1%
- viability, T/C [23]: 19.6%
- viability, T/C [8]: 13.7%
- viability, T/C [9]: 9.02%
- viability, T/C [24]: 55%
- viability, T/C [25]: 51.1%
- viability, T/C [26]: 29.2%
- viability, T/C [27]: 24.9%
- viability, T/C [10]: 13%
- viability, T/C [11]: 10.4%
- viability, T/C [28]: 64.3%
- viability, T/C [29]: 36.3%
- viability, T/C [30]: 31%
- viability, T/C [31]: 21.7%
- viability, T/C [12]: 14.3%
- viability, T/C [13]: 12.2%
- viability, T/C [32]: 50.4%
- viability, T/C [33]: 40.6%
- viability, T/C [34]: 27.8%
- viability, T/C [35]: 19.8%
- viability, T/C [14]: 17.1%
- viability, T/C [15]: 11.5%

Reference: PubChem BioAssay AID2060351 (Molecular Pharmacology Branch, DTP, NCI, 2025)
